Laboratory results taken from ChEMBL document CHEMBL2074501, “Inhibition of P-glycoprotein by newer antidepressants” (J Pharmacol Exp Ther, 2003).

The compounds below were run against ATP-dependent translocase ABCB1 (Homo sapiens, UniProt P08183) (assay: TP_TRANSPORTER: cell accumulation of calcein in L-MDR1 cells). Conditions: not given.
Format: functional, cell-based

ATP-dependent translocase ABCB1, sequence (P08183 whole entry): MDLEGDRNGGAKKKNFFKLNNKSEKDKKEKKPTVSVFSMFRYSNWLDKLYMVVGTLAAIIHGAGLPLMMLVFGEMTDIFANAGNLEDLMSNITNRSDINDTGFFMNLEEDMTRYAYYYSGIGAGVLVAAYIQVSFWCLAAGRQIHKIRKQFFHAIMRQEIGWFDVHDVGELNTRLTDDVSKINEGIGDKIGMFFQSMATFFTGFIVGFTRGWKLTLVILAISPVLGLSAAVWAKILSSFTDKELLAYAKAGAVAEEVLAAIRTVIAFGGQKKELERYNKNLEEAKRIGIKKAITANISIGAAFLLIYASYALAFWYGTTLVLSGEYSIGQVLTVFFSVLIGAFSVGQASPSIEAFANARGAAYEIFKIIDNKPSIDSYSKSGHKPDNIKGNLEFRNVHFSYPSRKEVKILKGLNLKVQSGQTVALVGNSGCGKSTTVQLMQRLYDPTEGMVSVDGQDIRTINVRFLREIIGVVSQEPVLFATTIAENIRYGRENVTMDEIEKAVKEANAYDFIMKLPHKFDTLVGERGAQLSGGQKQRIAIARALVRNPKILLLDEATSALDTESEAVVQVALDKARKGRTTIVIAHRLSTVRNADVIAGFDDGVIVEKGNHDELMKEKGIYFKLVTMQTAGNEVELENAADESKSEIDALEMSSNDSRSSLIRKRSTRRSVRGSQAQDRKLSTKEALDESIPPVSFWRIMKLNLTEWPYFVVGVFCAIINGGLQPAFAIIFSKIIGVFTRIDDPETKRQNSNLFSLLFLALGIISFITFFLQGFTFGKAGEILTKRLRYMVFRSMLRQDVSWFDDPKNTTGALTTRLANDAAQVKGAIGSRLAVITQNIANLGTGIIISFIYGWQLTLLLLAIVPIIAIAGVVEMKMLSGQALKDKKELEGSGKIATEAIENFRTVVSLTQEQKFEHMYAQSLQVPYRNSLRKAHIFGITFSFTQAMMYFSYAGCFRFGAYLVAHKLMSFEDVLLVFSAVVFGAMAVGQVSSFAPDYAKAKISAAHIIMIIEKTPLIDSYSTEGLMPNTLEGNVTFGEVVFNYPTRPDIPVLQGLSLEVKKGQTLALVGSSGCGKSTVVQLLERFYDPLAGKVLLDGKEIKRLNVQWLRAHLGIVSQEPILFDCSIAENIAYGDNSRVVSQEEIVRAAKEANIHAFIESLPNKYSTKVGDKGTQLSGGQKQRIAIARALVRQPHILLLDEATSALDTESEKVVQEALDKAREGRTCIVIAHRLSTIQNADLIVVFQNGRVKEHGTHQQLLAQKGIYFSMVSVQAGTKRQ

**Q.** With `CN[C@H]1CC[C@@H](c2ccc(Cl)c(Cl)c2)c2ccccc21` [SERTRALINE] as the compound, how does the IC50 read?
**A.** Its IC50 is 31.8 µM.

**Q.** How did the IC50 turn out when `Fc1ccc([C@@H]2CCNC[C@H]2COc2ccc3c(c2)OCO3)cc1` [PAROXETINE] was run?
**A.** The IC50 was 29.8 µM.

Same assay, conditions: pig, l-mdr1

**Q.** With `N[C@H]1CC[C@@H](c2ccc(Cl)c(Cl)c2)c2ccccc21` as the compound, how does the Activity read?
**A.** Its Activity is “inhibitor [+]”.

**Q.** With `COc1ccc(C(CN(C)C)C2(O)CCCCC2)cc1` (configuration not stated) [VENLAFAXINE] as the compound, how does the Activity read?
**A.** The Activity was “inhibitor [+]”.

**Q.** For `COc1cc(OC[C@@H]2CNCC[C@H]2c2ccc(F)cc2)ccc1O` [Paroxetine-M], which Activity is on record?
**A.** The Activity was “inhibitor [+]”.

**Q.** With `C/C=C/C[C@@H](C)C(=O)[C@H]1C(=O)N[C@@H](C(C)C)C(=O)N(C)CC(=O)N(C)[C@@H](CC(C)C)C(=O)N[C@@H](C(C)C)C(=O)N(C)[C@@H](CC(C)C)C(=O)N[C@@H](C)C(=O)N[C@H](C)C(=O)N(C)[C@@H](CC(C)C)C(=O)N(C)[C@@H](CC(C)C)C(=O)N(C)[C@@H](C(C)C)C(=O)N1C` as the compound, how does the Activity read?
**A.** Its Activity is “inhibitor [+]”.

**Q.** Which Activity does the source give for `CN(C)CC(c1ccc(O)cc1)C1(O)CCCCC1` (configuration not stated) [DESVENLAFAXINE] here?
**A.** The Activity was “is not an inhibitor [-]”.

**Q.** Which Activity does the source give for `CNCC(c1ccc(OC)cc1)C1(O)CCCCC1` (configuration not stated) [N-DESMETHYLVENLAFAXINE] here?
**A.** Its Activity is “inhibitor [+]”.

**Q.** For `NCCC(Oc1ccc(C(F)(F)F)cc1)c1ccccc1` (configuration not stated) [NORFLUOXETINE], which Activity is on record?
**A.** Its Activity is “inhibitor [+]”.

**Q.** Which Activity does the source give for `COCCCC/C(=N\OCCN)c1ccc(C(F)(F)F)cc1` [FLUVOXAMINE] here?
**A.** Its Activity is “inhibitor [+]”.

**Q.** `CN(C)CCCC1(c2ccc(F)cc2)OCc2cc(C#N)ccc21` (configuration not stated) [CITALOPRAM] was tested. Which Activity did it give?
**A.** The Activity was “inhibitor [+]”.

**Q.** For `CNCCCC1(c2ccc(F)cc2)OCc2cc(C#N)ccc21` (configuration not stated) [DESMETHYLCITALOPRAM], which Activity is on record?
**A.** Its Activity is “inhibitor [+]”.
